Where no end group is shown, it is not given here.
Legend:
[1] = system: HLA-DQ; assay: Peptide inhibition study, clone E as indicator responder cell (binding of peptide 43 to HLA-DQ); format: cell-based, human; conditions: FIG. 7; 5 μmolar peptide 43, 250 μmolar inhibitory peptide
Excerpt: Conditions are otherwise as described in FIG. 4.
Five μmolar concentration of stimulatory peptide (peptide 43) and 250 μmolar of the inhibitory peptides were used. Conditions were otherwise as described in FIG. 4. Note: Peptide 65 and 81 are non-stimulatory in a concentration of 10 μmolar (FIG. 6), but are stimulatory in a concentration of 250 μmolar.
In order to map peptide binding to HLA-DR and HLA-DQ, we tested the non-stimulatory p21 ras peptides for capacity to inhibit the binding of peptide 42 to HLA-DR, using stimulation of clone I as indicator system, and inhibition of peptide 43 binding to HLA-DQ using stimulation of clone E as an indicator system.

[2] = molecular target: DQw6; assay: Inhibition of binding of iodinated indicator peptide P104 to affinity purified HLA DQw6; set-up: species or system human; conditions: tested 0,33-10 μM
[3] = system: DR1; format: binding, human; conditions: indicator iodinated P34, tested 0,33-10 μM
[4] = system: T cell clone F; assay: T cell proliferation assay, clone F; format: cell-based, human; conditions: for stimulation of clone F by truncated forms of peptide 45: 10 μmolar
Description: (§1) FIG. 2 and FIGS. 2a-2e show the specificity of the T cell clones I, B, E and F in T cell proliferation assays. Assays were set up in triplicate in 96 well plates, with the five peptides present in the original peptide mixture as stimulating antigens. The wells contained 50000 irradiated (8000 R) autologous EBV transformed B cells as antigen presenting cells (APC).
(§2) Cultures were incubated for 2 days at 37° C. in a 5% CO2 incubator, and pulsed overnight with 1 μCi of ^3 H-thymidine (Amersham, England) per well before harvesting onto glass fibre filters by an automated cell harvester (Scatron, Lierbyen, Norway). Thymidine incorporation into DNA was quantitated by liquid scintillation counting using an LKB 1205 Betaplate Liquid Scintillation counter. Data are given as medians of triplicate cultures. Controls included T cell clones cultured alone, or with APC in the absence of peptides. The panels are scaled according to the magnitude of the positive response.
The conditions of the assay were exactly as described in FIG. 6.
The peptide concentration was as given in the Figure, and the conditions of the assay were otherwise as described for FIG. 6.

[5] = system: T cell clone E; assay: T cell proliferation assay, clone E; format: cell-based, human
Description: as §1, §2
The conditions of the assay were as described in FIG. 2. […]

Substance: AGVVGKSALAL [compound 68, N-terminally truncated form of peptide 43]
- inhibition of clone E response to peptide 43 by truncated peptides [1]: inhibit

Substance: GAGVVGKSALAL [compound 67, N-terminally truncated form of peptide 43]
- inhibition of clone E response to peptide 43 by truncated peptides [1]: inhibit

Substance: P104: printed Y----------- (SEQ ID NO. 93); iodinated P104 was the indicator peptide for binding to DQw6 (YVVVGAAGVGKSA; also: iodinated) [reference compound]
- IC50 [2]: < 0.33 µM
- IC50 [3]: 0.78 µM

Substance: VGAGVVGKSALAL [compound 66, N-terminally truncated form of peptide 43]
- inhibition of clone E response to peptide 43 by truncated peptides [1]: inhibit

Substance: VVGAAGVGKS [P88]
- IC50 [2]: 8.97 µM
- dose-response of clone F, potency compared to peptide 45 ([4]; FIG. 16): far less potent

Substance: VVGAAGVGKSA [p90]
- IC50 [2]: 9.98 µM

Substance: VVGAAGVGKSALAL [compound 70, N-terminally truncated form of peptide 45]
- stimulation of clone F by truncated forms of peptide 45 [4]: stimulate

Substance: VVGAGVVGKSALAL [compound 65, N-terminally truncated form of peptide 43]
- stimulation of clone E by truncated forms of peptide 43 ([5]; 10 μmolar): non-stimulatory
- stimulation of clone E by truncated forms of peptide 43 ([5]; 250 μmolar): become stimulatory
- stimulation of clone E by truncated forms of peptide 43 ([5]; 250 μmolar, listed as Peptide 65): stimulatory

Substance: VVVGAAGVGKS [P89]
- IC50 [2]: 10 µM

Substance: VVVGAAGVGKSA [p91]
- IC50 [2]: 1.29 µM

Substance: VVVGAAGVGKSALAL [compound 69, N-terminally truncated form of peptide 45]
- stimulation of clone F by truncated forms of peptide 45 [4]: stimulate

Substance: VVVGAGVVGKSALAL [compound 64, N-terminally truncated form of peptide 43]
- stimulation of clone E by truncated forms of peptide 43 ([5]; 10 μmolar): stimulate

— patent US5961978A, “Therapeutically useful peptides and peptide fragments” (Norsk Hydro, a.s., priority 1991, dated 1999)
